Like-named read-outs stand apart in the source and are kept apart here.
Target: T1, TYK2 (Homo sapiens, UniProt P29597)
T1 construct: Degradation of TYK2 in cells was quantitatively measured using Meso Scale Discovery (MSD) technology; endogenous in cells; host or cells: OCI-LY10
Assay: TYK2 MSD degradation in OCI-LY10 cells
Format: cell-based
Details: 4 to 24 hours incubation; for DC50: read-out: TYK2 MSD OCI-LY10 Rel-DC50
Procedure: Example 7. TYK2 MSD Degradation
Degradation of TYK2 in cells was quantitatively measured using Meso Scale Discovery (MSD) technology. OCI-LY10 cells were seeded in 96-well plates with a density of 0.4 million cells per well in 100 μl fresh media. Compounds were then added to the assay plates with a final top concentration of 1 to 10 μM in a 1:3 dilution series with total of 9 doses. The assay plates were then incubated for 4 to 24 hours at 37° C. under […]. The assay plates were then centrifuged for 5 minutes, and the cell pellets were treated with 100 μl/well RIPA lysis buffer (Boston Bioproducts, BP-115D) with protease and phosphatase inhibitors (Roche, 05892791001 and 04906837001). To prepare MSD assay plates (MSD, L15XA), the plates were coated with the capture antibody (Santa Cruz Biotechnology, SC-5271) in PBS, at 40 μl/well. The plates were then incubated overnight at 4° C., washed 3 times with 150 μl/well TBST buffer (Cell Signaling Technology, 9997S) and blocked with 150 μl/well blocking buffer (MSD, R93BA-4). Cell lysates were then added to MSD assay plates and the plates were incubated at room temperature for 1 hour. The plates were then washed 3 times with 150 μl/well TBST buffer and 25 μl/well primary detection antibody (Cell Signaling Technology, #9312). The assay plates were then incubated at room temperature for 1 hour, washed 3 times with 150 μl/well TBST buffer, and 25 μl/well secondary detection antibody, SULFO-TAG anti-rabbit antibody (MSD, R32AB-1) were added. The assay plates were then incubated at room temperature for 1 hour, washed 3 times with 150 μl/well TB ST buffer, and 150 μl/well MSD reading buffer (MSD, R92TC-2) were added. The plates were then analyzed by an MSD reader. The data was analyzed by GraphPad Prism and the dose dependent TYK2 degradation was fit using the four-parameter inhibitor vs. response nonlinear regression.
The letter codes for TYK2 DC50 include: A (<1 nM); B (i to <10 nM); C (10 to 100 nM); D (>100 nM); and E (not tested). The letter codes for TYK2 Dmax % include: A (>90%); B (90 to >75%); C (75 to 50%); D (<50%); and E (not tested).

[1] = TYK2 degradation in OCI-LY10 cells

T1 sequence (P29597 whole entry): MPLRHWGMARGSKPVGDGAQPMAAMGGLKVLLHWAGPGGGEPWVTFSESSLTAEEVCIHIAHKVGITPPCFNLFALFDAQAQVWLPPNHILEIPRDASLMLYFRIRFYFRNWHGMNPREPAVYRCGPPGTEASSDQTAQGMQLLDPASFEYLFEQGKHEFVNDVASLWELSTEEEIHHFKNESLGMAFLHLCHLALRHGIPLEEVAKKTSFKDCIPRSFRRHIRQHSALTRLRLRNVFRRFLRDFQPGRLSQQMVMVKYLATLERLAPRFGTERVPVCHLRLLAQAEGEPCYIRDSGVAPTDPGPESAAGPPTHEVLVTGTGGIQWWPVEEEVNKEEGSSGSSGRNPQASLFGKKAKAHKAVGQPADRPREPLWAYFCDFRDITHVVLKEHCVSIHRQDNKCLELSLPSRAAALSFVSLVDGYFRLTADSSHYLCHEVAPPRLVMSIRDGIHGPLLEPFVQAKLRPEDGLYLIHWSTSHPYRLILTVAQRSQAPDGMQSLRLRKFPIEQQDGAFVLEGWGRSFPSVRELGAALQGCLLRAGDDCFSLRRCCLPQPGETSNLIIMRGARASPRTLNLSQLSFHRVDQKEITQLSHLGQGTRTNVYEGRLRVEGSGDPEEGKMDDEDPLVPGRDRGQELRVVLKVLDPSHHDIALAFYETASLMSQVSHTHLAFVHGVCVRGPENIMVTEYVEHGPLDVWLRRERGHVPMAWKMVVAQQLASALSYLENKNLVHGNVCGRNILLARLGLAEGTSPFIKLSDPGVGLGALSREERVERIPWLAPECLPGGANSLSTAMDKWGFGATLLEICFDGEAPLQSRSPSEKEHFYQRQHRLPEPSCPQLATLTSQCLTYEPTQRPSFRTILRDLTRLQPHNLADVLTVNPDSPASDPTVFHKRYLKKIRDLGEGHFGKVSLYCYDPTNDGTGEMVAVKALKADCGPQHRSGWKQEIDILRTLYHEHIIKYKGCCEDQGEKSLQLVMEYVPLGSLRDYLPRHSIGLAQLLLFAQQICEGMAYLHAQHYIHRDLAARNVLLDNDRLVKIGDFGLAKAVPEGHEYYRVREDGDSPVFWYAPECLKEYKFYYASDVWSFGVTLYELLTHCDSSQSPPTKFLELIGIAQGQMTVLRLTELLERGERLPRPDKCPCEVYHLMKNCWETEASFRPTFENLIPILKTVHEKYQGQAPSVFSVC

| SMILES | TYK2 MSD OCI-LY10 Dmax % [1] | DC50 [1] | TYK2 MSD OCI-LY10 Dmax % (OCI-LY10 cells) | DC50 (OCI-LY10 cells) |
| --- | --- | --- | --- | --- |
| CNc1cc(N2CCc3c(-c4ccc(CN5CCC(N6CCN(CCc7ccc(Cl)c(C8CCC(=O)NC8=O)c7)CC6)C(F)(F)C5)cn4)cccc32)nn2c(C(=O)NC3CC3F)cnc12 (stereo not drawn) [I-902] | B (B (90 to >75%)) | < 10 nM | – | – |
| CNc1cc(N2CCc3c(-c4ncc(CN5CC6(CCN(C(=O)c7cc(C)c(Cl)c(N8CCC(=O)NC8=O)c7)CC6(F)F)C5)cc4F)cccc32)nn2c(C(=O)NC3CC3)cnc12 [I-982] | B (B (90 to >75%)) | < 1 nM | – | – |
| CNc1cc(-c2cn(C3CCN(C(=O)c4ccc(Cl)c(N5CCC(=O)NC5=O)c4)CC3)c3ccccc23)nn2c(C(=O)N[C@@H]3C[C@@H]3F)cnc12 [I-798] | D (D (<50%)) | > 100 nM | – | – |
| CNc1cc(N2CCc3c(-c4ccc(CN5CCC(N6CCN(c7ccc8c(c7F)n(C)c(=O)n8C7CCC(=O)NC7=O)CC6)C(F)(F)C5)cn4)cccc32)nn2c(C(=O)NC3CC3F)cnc12 (stereo not drawn) [I-910] | B (B (90 to >75%)) | < 10 nM | – | – |
| CNc1cc(N2CCc3c(-c4ccc(CN5CCN(CC#Cc6cccc(N7CCC(=O)NC7=O)c6C)CC5)cn4)cccc32)nn2c(C(=O)NC3CC3F)cnc12 (stereo not drawn) [I-311] | C (C (75 to 50%)) | > 100 nM | – | – |
| CNc1cc(N2CCc3c(-c4ncc(CN5CC6(CCN(C(=O)c7cc(N8CCC(=O)NC8=O)c(OC)cc7F)CC6(F)F)C5)cc4F)cccc32)nn2c(C(=O)N[C@@H]3CC[C@H]3OC)cnc12 [I-1134] | A (A (>90%)) | < 1 nM | – | – |
| CNc1cc(N2CCc3c(-c4ccc(CN5CCC6(CCC(N(C)c7ccc(Cl)c(N8CCC(=O)NC8=O)c7)CC6)CC5)cn4)cccc32)nn2c(C(=O)N[C@@H]3CC[C@H]3OC)cnc12 [I-1009] | B (B (90 to >75%)) | < 10 nM | – | – |
| CNc1cc(N2CCc3c(-c4ccc(CN5CC6(CCN(C(=O)c7ccc(Cl)c(N8CCC(=O)NC8=O)c7)CC6(F)F)C5)cn4)cccc32)nn2c(C(=O)NC3CC(F)(F)C3)cnc12 [I-653] | – | – | B (B (90 to >75%)) | < 10 nM |
| CNc1cc(N2CCc3c(-c4ncc(CN5CC6(CCN(C(=O)c7ccc(Cl)c(N8CCC(=O)NC8=O)c7)CC6(F)F)C5)cc4F)cccc32)nn2c(C(=O)N[C@@H]3CC[C@H]3OC)cnc12 [I-1154] | A (A (>90%)) | < 1 nM | – | – |
| CNc1cc(N2CCc3c(-c4ccc(OC5CCC6(CC5)CCN(Cc5ccc(Cl)c(N7CCC(=O)NC7=O)c5)CC6)cn4)cccc32)nn2c(C(=O)N[C@@H]3C[C@@H]3F)cnc12 [I-362] | D (D (<50%)) | > 100 nM | – | – |
| CNc1cc(N2CCc3c(-c4ncc(CN5CC6(CCN(C(=O)c7ccc(C)c(N8CCC(=O)NC8=O)c7)CC6(F)F)C5)cc4F)cccc32)nn2c(C(=O)N[C@@H]3C[C@@H]3F)cnc12 [I-1018] | A (A (>90%)) | < 1 nM | – | – |
| CNc1cc(N2CCc3c(-c4ccc(CN5CC6(CCN(C(=O)c7cc(C)c(C)c(N8CCC(=O)NC8=O)c7)CC6(F)F)C5)cn4)cccc32)nn2c(C(=O)N[C@@H]3C[C@@H]3F)cnc12 [I-796] | A (A (>90%)) | < 1 nM | – | – |
| CNc1cc(N2CCc3c(-c4cc(CN5CC6(CCN(C(=O)c7ccc(Cl)c(N8CCC(=O)NC8=O)c7)CC6)C5)ccn4)cccc32)nn2c(C(=O)N[C@@H]3C[C@@H]3F)cnc12 [I-79] | D (D (<50%)) | < 10 nM | – | – |
| CNc1cc(N2CCc3c(N4CC(CN5CCC6(CCN(C(=O)c7ccc(Cl)c(N8CCC(=O)NC8=O)c7)CC6)C(F)(F)C5)C4)cccc32)nn2c(C(=O)N[C@@H]3C[C@@H]3F)cnc12 [I-783] | – | – | B (B (90 to >75%)) | < 10 nM |
| CNc1cc(N2CCc3c(CN4CCC(N5CCC6(CCN(C(=O)c7cc(N8CCC(=O)NC8=O)c(Cl)cc7F)CC6)CC5)C(F)(F)C4)cccc32)nn2c(C(=O)N[C@@H]3CC[C@H]3OC)cnc12 (stereo partly drawn) [I-1084] | A (A (>90%)) | < 1 nM | – | – |

Source: patent US20260125400A1, “TYK2 DEGRADERS AND USES THEREOF” (Kymera Therapeutics, Inc., priority 2023, published 2026)
